PubChem BioAssay AID1963959 (Molecular Pharmacology Branch, DTP, NCI, 2024)

Tested on: T-47D spheroids with HUVEC/MSC, viability
Assay: Anticancer human tumor T-47D cell line growth inhibition [PI3K];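 further: spheroids exposed to agents for seven days before reading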;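 on viability, T/C: percent of DMSO vehicle control luminescence so 100% = untreated growth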
Details: for viability, T/C: stronger effect = lower value
Source text: Combinatorial screen of targeted agents with the PI3K inhibitors inavolisib, alpelisib, duvelisib, and copanlisib in multi-cell type tumor spheroids
A high-throughput screen of multi-cell type tumor spheroids was designed to identify active combinations of targeted small molecules and PI3K pathway inhibitors. Complex spheroids include a stromal component modeled by human endothelial cells (HUVEC) and fibroblasts modeled by human mesenchymal stem cells (MSCs). The concentration ranges selected for each drug and investigational agent were based upon clinically achievable concentrations if the clinical Cmax of the agent was known.
Compounds. The drugs and investigational agents: inavolisib (NSC800729), alpelisib (NSC765974), duvelisib (NSC772469), copanlisib (NSC816437), ipatasertib (NSC767898), afuresertib (NSC778305), talazoparib (NSC767125), sapanisertib (NSC764658), selumetinib (NSC741078), tovorafenib (DAY101, NSC766906), vemurafenib (NSC761431), ravoxertinib (NSC781343), sotorasib (NSC818433), MRTX1133 (NSC 836407), abemaciclib (NSC 768073), palbociclib (NSC758247), venetoclax (NSC 766270), SY5609 (NSC837396), enzalutamide (NSC755605), and darolutamide (NSC825331), were obtained from the National Cancer Institute (NCI) Developmental Therapeutics Program Chemical Repository. The FDA-approved anticancer drug set is available from the NCI Developmental Therapeutics Program. […] The stock solutions were prepared in dimethyl sulfoxide (DMSO, Sigma-Aldrich, St. Louis, MO, cat. D2650) at 800-fold the tested concentration and stored at -70 degrees C prior to their use. All drugs and investigational agents were tested over a range starting from a high concentration at or near the clinical Cmax and decreasing in half-log increments. If the clinical Cmax for an agent had not been determined, the highest concentration tested was 10 microM.
Cell Culture. All cells were maintained in an incubator at 37 degrees C and 5% CO2 with 95% humidity. The PDC lines were cultured according to standard operating procedures established by the NCI PDMR (https://pdmr.cancer.gov/sops/default.htm). All PDCs were thawed and cultured in Matrigel-coated flasks prepared with a working solution of 1X Ham's F-12 nutrient mix, without supplementation (Invitrogen, Waltham, MA, cat. 11765054), 100 U/mL penicillin-streptomycin (Invitrogen, cat. 15140122), and 2.5% Matrigel (Corning Inc., Corning, NY, cat. 354248) for the first three passages. The 354836-022-R-J1-PDC, 475296-252-R-J1-PDC, and 997726-040-R-J2-PDC lines were cultured in 6A media, which includes advanced DMEM/F-12 (Thermo Fisher Scientific, cat. 12634028), 10 mM HEPES (Thermo Fisher Scientific, cat. 15630080), 1X GlutaMAX supplement (Thermo Fisher Scientific, cat. 35050061), 0.1 mg/mL primocin (InvivoGen, San Diego, CA, cat. ant-pm-2), 10% defined fetal bovine serum, heat inactivated (HyClone Laboratories Inc., Logan, UT, cat. SH30070.03HI), 50% L-WRN conditioned media (ATCC, cat. CRL-3276), 1.25 mM N-Acetyl-L-cysteine (Sigma-Aldrich, cat. A9165), 10 mM nicotinamide (Sigma-Aldrich, cat. N0636), 1X B-27 supplement (Thermo Fisher Scientific, cat. 17504044), 1X N-2 supplement (Thermo Fisher Scientific, cat. 17502048), and 10 microM Y-27632 dihydrochloride (Tocris Bioscience, Bristol, United Kingdom, cat. 1254). The 624824-186-R-J2-PDC line was cultured in 6C/Colon 1B media, which includes all 6A media components plus 50 ng/mL human EGF recombinant protein (Thermo Fisher Scientific, cat. PHG0311). […]

[1] = curve of first compound, second compound 0.0316 µM
[2] = curve of first compound, second compound 0.1 µM
[3] = curve of first compound, second compound 0.316 µM
[4] = curve of first compound, second compound 1 µM
[5] = second compound 0.0316 µM, first compound 0.0316 µM
[6] = second compound 0.0316 µM, first compound 0.1 µM
[7] = second compound 0.0316 µM, first compound 0.316 µM
[8] = second compound 0.0316 µM, first compound 1 µM
[9] = second compound 0.0316 µM, first compound 3.16 µM
[10] = second compound 0.0316 µM, first compound 10 µM
[11] = second compound 0.1 µM, first compound 0.0316 µM
[12] = second compound 0.1 µM, first compound 0.1 µM
[13] = second compound 0.1 µM, first compound 0.316 µM
[14] = second compound 0.1 µM, first compound 1 µM
[15] = second compound 0.1 µM, first compound 3.16 µM
[16] = second compound 0.1 µM, first compound 10 µM
[17] = second compound 0.316 µM, first compound 0.0316 µM
[18] = second compound 0.316 µM, first compound 0.1 µM
[19] = second compound 0.316 µM, first compound 0.316 µM
[20] = second compound 0.316 µM, first compound 1 µM
[21] = second compound 0.316 µM, first compound 3.16 µM
[22] = second compound 0.316 µM, first compound 10 µM
[23] = second compound 1 µM, first compound 0.0316 µM
[24] = second compound 1 µM, first compound 0.1 µM
[25] = second compound 1 µM, first compound 0.316 µM
[26] = second compound 1 µM, first compound 1 µM
[27] = second compound 1 µM, first compound 3.16 µM
[28] = second compound 1 µM, first compound 10 µM
[29] = curve of first compound, second compound 3.16 µM
[30] = curve of first compound, second compound 10 µM
[31] = second compound 3.16 µM, first compound 0.0316 µM
[32] = second compound 3.16 µM, first compound 0.1 µM
[33] = second compound 3.16 µM, first compound 0.316 µM
[34] = second compound 3.16 µM, first compound 1 µM
[35] = second compound 10 µM, first compound 0.0316 µM
[36] = second compound 10 µM, first compound 0.1 µM
[37] = second compound 10 µM, first compound 0.316 µM
[38] = second compound 10 µM, first compound 1 µM

Compound: CC(C)NCC(C(=O)N1CCN(c2ncnc3c2C(C)CC3O)CC1)c1ccc(Cl)cc1 (stereo unspecified) + CC(Nc1ccc2c(c1)OCCn1cc(N3C(=O)OCC3C(F)F)nc1-2)C(N)=O
- IC50 (curve of first compound, second compound 0.00316 µM): 8.76 µM
- IC50 (curve of first compound, second compound 0.01 µM): > 10 µM
- IC50 [1]: > 10 µM
- IC50 [2]: 3.89 µM
- IC50 [3]: 2.42 µM
- IC50 [4]: 0.0626 µM
- viability, T/C (second compound 0.00316 µM, first compound 0.0316 µM): 109%
- viability, T/C (second compound 0.00316 µM, first compound 0.1 µM): 96.1%
- viability, T/C (second compound 0.00316 µM, first compound 0.316 µM): 82.7%
- viability, T/C (second compound 0.00316 µM, first compound 1 µM): 80.5%
- viability, T/C (second compound 0.00316 µM, first compound 3.16 µM): 60.5%
- viability, T/C (second compound 0.00316 µM, first compound 10 µM): 48%
- viability, T/C (second compound 0.01 µM, first compound 0.0316 µM): 94.5%
- viability, T/C (second compound 0.01 µM, first compound 0.1 µM): 94.2%
- viability, T/C (second compound 0.01 µM, first compound 0.316 µM): 91%
- viability, T/C (second compound 0.01 µM, first compound 1 µM): 73.6%
- viability, T/C (second compound 0.01 µM, first compound 3.16 µM): 66.6%
- viability, T/C (second compound 0.01 µM, first compound 10 µM): 59%
- viability, T/C [5]: 102%
- viability, T/C [6]: 95.5%
- viability, T/C [7]: 84.7%
- viability, T/C [8]: 68.5%
- viability, T/C [9]: 53.7%
- viability, T/C [10]: 51.6%
- viability, T/C [11]: 94.1%
- viability, T/C [12]: 81.2%
- viability, T/C [13]: 75.7%
- viability, T/C [14]: 59.3%
- viability, T/C [15]: 51.8%
- viability, T/C [16]: 43.6%
- viability, T/C [17]: 63.2%
- viability, T/C [18]: 64%
- viability, T/C [19]: 56.7%
- viability, T/C [20]: 53.5%
- viability, T/C [21]: 50.1%
- viability, T/C [22]: 41.6%
- viability, T/C [23]: 51.7%
- viability, T/C [24]: 46.8%
- viability, T/C [25]: 52.2%
- viability, T/C [26]: 41.4%
- viability, T/C [27]: 42.3%
- viability, T/C [28]: 44.3%

Compound: CC(Nc1ccc2c(c1)OCCn1cc(N3C(=O)OCC3C(F)F)nc1-2)C(N)=O (stereo unspecified)
- viability, T/C (compound 0.00316 µM): 95.1% [middle of 8 runs]
- viability, T/C (compound 0.0316 µM): 93.7% [middle of 8 runs]
- viability, T/C (compound 0.316 µM): 79.9% [middle of 8 runs]
- viability, T/C (compound 1 µM): 57.9% [middle of 8 runs]
- IC50 (compound alone, run of 04/24/2023): > 1 µM

Compound: CCN1CCN(Cc2ccc(Nc3ncc(F)c(-c4cc(F)c5nc(C)n(C(C)C)c5c4)n3)nc2)CC1 + CC(Nc1ncnc2nc[nH]c12)c1cc2cccc(Cl)c2c(=O)n1-c1ccccc1
- IC50 [1]: > 1 µM
- IC50 [2]: > 1 µM
- IC50 [3]: > 1 µM
- IC50 [4]: > 1 µM
- IC50 [29]: > 1 µM
- IC50 [30]: > 1 µM
- viability, T/C (second compound 0.0316 µM, first compound 0.00316 µM): 107%
- viability, T/C (second compound 0.0316 µM, first compound 0.01 µM): 97.2%
- viability, T/C [5]: 91.7%
- viability, T/C [6]: 74.7%
- viability, T/C [7]: 95.7%
- viability, T/C [8]: 94.5%
- viability, T/C (second compound 0.1 µM, first compound 0.00316 µM): 114%
- viability, T/C (second compound 0.1 µM, first compound 0.01 µM): 87.1%
- viability, T/C [11]: 81.8%
- viability, T/C [12]: 96%
- viability, T/C [13]: 88.5%
- viability, T/C [14]: 92.3%
- viability, T/C (second compound 0.316 µM, first compound 0.00316 µM): 103%
- viability, T/C (second compound 0.316 µM, first compound 0.01 µM): 98.5%
- viability, T/C [17]: 82.6%
- viability, T/C [18]: 78.8%
- viability, T/C [19]: 93.6%
- viability, T/C [20]: 106%
- viability, T/C (second compound 1 µM, first compound 0.00316 µM): 112%
- viability, T/C (second compound 1 µM, first compound 0.01 µM): 93.2%
- viability, T/C [23]: 91%
- viability, T/C [24]: 84.1%
- viability, T/C [25]: 89.7%
- viability, T/C [26]: 106%
- viability, T/C (second compound 3.16 µM, first compound 0.00316 µM): 93.5%
- viability, T/C (second compound 3.16 µM, first compound 0.01 µM): 80.9%
- viability, T/C [31]: 85.6%
- viability, T/C [32]: 77.2%
- viability, T/C [33]: 89.9%
- viability, T/C [34]: 85.9%
- viability, T/C (second compound 10 µM, first compound 0.00316 µM): 77.7%
- viability, T/C (second compound 10 µM, first compound 0.01 µM): 89.4%
- viability, T/C [35]: 82.2%
- viability, T/C [36]: 72.8%
- viability, T/C [37]: 71.9%
- viability, T/C [38]: 82.1%

Compound: Cn1nccc1Nc1nccc(-c2ccn(C(CO)c3ccc(Cl)c(F)c3)c(=O)c2)n1 (stereo unspecified) + CC(Nc1ncnc2nc[nH]c12)c1cc2cccc(Cl)c2c(=O)n1-c1ccccc1
- IC50 [1]: > 10 µM
- IC50 [2]: > 10 µM
- IC50 [3]: > 10 µM
- IC50 [4]: > 10 µM
- IC50 [29]: > 10 µM
- IC50 [30]: > 10 µM
- viability, T/C [5]: 114%
- viability, T/C [6]: 91.8%
- viability, T/C [7]: 116%
- viability, T/C [8]: 103%
- viability, T/C [9]: 115%
- viability, T/C [10]: 90.4%
- viability, T/C [11]: 109%
- viability, T/C [12]: 99.9%
- viability, T/C [13]: 99.2%
- viability, T/C [14]: 85.5%
- viability, T/C [15]: 104%
- viability, T/C [16]: 81%
- viability, T/C [17]: 80.2%
- viability, T/C [18]: 96.7%
- viability, T/C [19]: 87.5%
- viability, T/C [20]: 88.8%
- viability, T/C [21]: 118%
- viability, T/C [22]: 83.5%
- viability, T/C [23]: 88.4%
- viability, T/C [24]: 108%
- viability, T/C [25]: 98.4%
- viability, T/C [26]: 113%
- viability, T/C [27]: 111%
- viability, T/C [28]: 84.2%
- viability, T/C [31]: 101%
- viability, T/C [32]: 97.6%
- viability, T/C [33]: 97.6%
- viability, T/C [34]: 85.5%
- viability, T/C (second compound 3.16 µM, first compound 3.16 µM): 108%
- viability, T/C (second compound 3.16 µM, first compound 10 µM): 96.3%
- viability, T/C [35]: 97.1%
- viability, T/C [36]: 84.1%
- viability, T/C [37]: 95.8%
- viability, T/C [38]: 94%
- viability, T/C (second compound 10 µM, first compound 3.16 µM): 125%
- viability, T/C (second compound 10 µM, first compound 10 µM): 73.9%
